# Results from patent US20070149446A1, “Tamandarin analogs and fragments thereof and methods of making and using” (The Trustees of the University of Pennsylvania Center for …, priority 2003, published 2007).
# Read-outs that look alike come from different tables or passages of the source. Starred links: 1 amine or outer side, 2 acyl side, 3 side chain; linkers in the order of their positions; H or OH if unused. Positions of bridges follow the written chain, without caps; N, C: chain ends. Non-standard residues stand in square brackets, D forms with d. Residues, ends and D or L forms follow the SMILES beside them. Hexanoyl(3S-OH,4R-NH2,5-Me) = CC(C)[C@@H](N[*:1])[C@@H](O)CC(=O)[*:2]; NMeY = CN[C@@H](Cc1ccc(O)cc1)C(=O)O; NMeF = CN[C@@H](Cc1ccccc1)C(=O)O; dNMeL = CN[C@H](CC(C)C)C(=O)O; Hiv = CC(C)[C@H](O)C(=O)O; Lac = C[C@H](O)C(=O)O
# What was measured:
# [1] = amide bond, 17.0 h
# PANC1 = experiment: SRB colorimetric cell growth inhibition assay, PANC1; settings: SRB, 48 hours exposure; for TGI / CC50: PANC1 cells; for TGI: total growth inhibition; for GI50: PANC1 pancreatic carcinoma cells; for CC50: read-out: LC50, cell killing
# Description: (§1) This form of assay employs 96 well cell culture microplates of […] diameter (Faircloth, 1988; Mosmann, 1983). Most of the cell lines are obtained from American Type Culture Collection (ATCC) derived from different human cancer types.
# (§2) Cells are maintained in RPMI 1640 10% FBS, supplemented with 0.1 g/l penicillin and 0.1 g/l streptomycin sulfate and then incubated at 37° C., 5% CO2 and 98% humidity. For the experiments, cells were harvested from subconfluent cultures using trypsin and resuspended in fresh medium before plating.
# (§3) Cells are seeded in 96 well microtiter plates, at 5×10^3 cells per well in aliquots of 195 μl medium, and they are allowed to attach to the plate surface by growing in drug free medium for 18 hours. Afterward, samples are added in aliquots of 5 μl in a ranging from 10 to 10-8 μg/ml, dissolved in DMSO/EtOH/PBS (0.5:0.5:99). After 48 hours exposure, the antitumor effect are measured by the SRB methodology: cells are fixed by adding 50 μl of cold 50% (wt/vol) trichloroacetic acid (TCA) and incubated for 60 minutes at 4° C.
# (§4) Plates are washed with deionised water and dried. One hundred μl of SRB solution (0.4% wt/vol in 1% acetic acid) is added to each microtiter well and incubated for 10 minutes at room temperature. Unbound SRB is removed by washing with 1% acetic acid. Plates are air dried and bound stain is solubilized with Tris buffer. Optical densities are read on a automated spectrophotometric plate reader at a single wavelength of 490 nm.
# (§5) The values for mean+/−SD of data from triplicate wells are calculated.
# (§6) Some parameters for cellular responses can be calculated: GI=growth inhibition, TGI=total growth inhibition (cytostatic effect) and LC=cell killing (cytotoxic effect).
# SK-BR3 = experiment: SRB colorimetric cell growth inhibition assay, SK-BR3; settings: SRB, 48 hours exposure; for GI50: SK-BR3 breast adenocarcinoma cells; for TGI / CC50: SK-BR3 cells; for TGI: total growth inhibition; for CC50: read-out: LC50, cell killing
# Description: as §1, §2, §3, §4, §5, §6
# SK-MEL-28 = experiment: SRB colorimetric cell growth inhibition assay, SK-MEL-28; settings: SRB, 48 hours exposure; for GI50: SK-MEL-28 (MEL-28) melanoma cells; for TGI / CC50: SK-MEL-28 cells; for TGI: total growth inhibition; for CC50: read-out: LC50, cell killing
# Description: as §1, §2, §3, §4, §5, §6
# HELA = experiment: SRB colorimetric cell growth inhibition assay, HELA; settings: SRB, 48 hours exposure; for TGI / CC50: HELA cells; for TGI: total growth inhibition; for GI50: HELA cervix carcinoma cells; for CC50: read-out: LC50, cell killing
# Description: as §1, §2, §3, §4, §5, §6
# LOVO = experiment: SRB colorimetric cell growth inhibition assay, LOVO; settings: SRB, 48 hours exposure; for TGI / CC50: LOVO cells; for TGI: total growth inhibition; for GI50: LOVO colon adenocarcinoma cells; for CC50: read-out: LC50, cell killing
# Description: as §1, §2, §3, §4, §5, §6
# A549 = experiment: SRB colorimetric cell growth inhibition assay, A549; settings: SRB, 48 hours exposure; for TGI / CC50: A549 cells; for TGI: total growth inhibition; for GI50: A549 lung carcinoma cells; for CC50: read-out: LC50, cell killing
# Description: as §1, §2, §3, §4, §5, §6
# HELA-APL = experiment: SRB colorimetric cell growth inhibition assay, HELA-APL; settings: SRB, 48 hours exposure; for GI50: HELA-APL (aplidine resistant) cervix cells; for TGI / CC50: HELA-APL cells; for TGI: total growth inhibition; for CC50: read-out: LC50, cell killing
# Description: as §1, §2, §3, §4, §5, §6
# LN-caP = experiment: SRB colorimetric cell growth inhibition assay, LN-caP; settings: SRB, 48 hours exposure; for TGI / CC50: LN-caP cells; for TGI: total growth inhibition; for GI50: LN-caP prostate adenocarcinoma cells; for CC50: read-out: LC50, cell killing
# Description: as §1, §2, §3, §4, §5, §6
# LOVO-DOX = experiment: SRB colorimetric cell growth inhibition assay, LOVO-DOX; settings: SRB, 48 hours exposure; for GI50: LOVO-DOX (MDR) colon adenocarcinoma cells; for TGI / CC50: LOVO-DOX cells; for TGI: total growth inhibition; for CC50: read-out: LC50, cell killing
# Description: as §1, §2, §3, §4, §5, §6
# IGROV-ET = experiment: SRB colorimetric cell growth inhibition assay, IGROV-ET; settings: SRB, 48 hours exposure; for GI50: IGROV-ET (ET-743 resistant) ovary cells; for TGI / CC50: IGROV-ET cells; for TGI: total growth inhibition; for CC50: read-out: LC50, cell killing
# Description: as §1, §2, §3, §4, §5, §6
# HT29 = experiment: SRB colorimetric cell growth inhibition assay, HT29; settings: SRB, 48 hours exposure; for TGI / CC50: HT29 cells; for TGI: total growth inhibition; for GI50: HT29 colon adenocarcinoma cells; for CC50: read-out: LC50, cell killing
# Description: as §1, §2, §3, §4, §5, §6
# K562 = experiment: SRB colorimetric cell growth inhibition assay, K562; settings: K562 cells, SRB, 48 hours exposure; for TGI: total growth inhibition; for CC50: read-out: LC50, cell killing
# Description: as §1, §2, §3, §4, §5, §6
# DU145 = experiment: SRB colorimetric cell growth inhibition assay, DU145; settings: SRB, 48 hours exposure; for TGI / CC50: DU145 cells; for TGI: total growth inhibition; for GI50: DU145 prostate carcinoma cells; for CC50: read-out: LC50, cell killing
# Description: as §1, §2, §3, §4, §5, §6
# IGROV = experiment: SRB colorimetric cell growth inhibition assay, IGROV; settings: SRB, 48 hours exposure; for TGI / CC50: IGROV cells; for TGI: total growth inhibition; for GI50: IGROV ovary adenocarcinoma cells; for CC50: read-out: LC50, cell killing
# Description: as §1, §2, §3, §4, §5, §6
smiles,measurement,setting,value
CC(C)C[C@@H]1NC(=O)[C@H](C(C)C)OC(=O)C[C@H](O)[C@@H](C(C)C)NC(=O)[C@@H](NC(=O)OC(C)(C)C)[C@@H](C)OC(=O)[C@H](Cc2ccc3ccccc3c2)N(C)C(=O)[C@@H]2CCCN2C1=O,"ring closure, yield of all isomers","[1]; from CN[C@@H](Cc1ccc2ccccc2c1)C(=O)O[C@H](C)[C@H](NC(=O)OC(C)(C)C)C(=O)N[C@H](C(C)C)[C@@H](O)CC(=O)O[C@H](C(=O)N[C@@H](CC(C)C)C(=O)N1CCC[C@H]1C(=O)O)C(C)C, HATU, CH3CN, 5.0 mM, 0.0 °C",65%
CC(C)C[C@@H]1NC(=O)[C@H](C(C)C)OC(=O)C[C@H](O[Si](C(C)C)(C(C)C)C(C)C)[C@@H](C(C)C)NC(=O)[C@@H](NC(=O)OC(C)(C)C)[C@@H](C)OC(=O)[C@H](Cc2ccccc2)N(C)C(=O)[C@@H]2CCCN2C1=O,"ring closure, yield of all isomers","[1]; from CC(C)C[C@H](NC(=O)[C@@H](OC(=O)C[C@H](O[Si](C(C)C)(C(C)C)C(C)C)[C@H](N)C(C)C)C(C)C)C(=O)N1CCC[C@H]1C(=O)N(C)[C@@H](Cc1ccccc1)C(=O)O[C@H](C)[C@H](NC(=O)OC(C)(C)C)C(=O)O, HATU/DIEA, DMF, 8.9 mM, 25.0 °C, 3 steps",15%
COc1ccc(C[C@H]2C(=O)OC[C@H](NC(=O)OC(C)(C)C)C(=O)N[C@H](C(C)C)[C@@H](O)CC(=O)O[C@@H](C(C)C)C(=O)N[C@@H](CC(C)C)C(=O)N3CCC[C@H]3C(=O)N2C)cc1,"ring closure, yield of all isomers","[1]; from CN[C@@H](Cc1ccc(OC)cc1)C(=O)OC[C@H](NC(=O)OC(C)(C)C)C(=O)N[C@H](C(C)C)[C@@H](O)CC(=O)O[C@H](C(=O)N[C@@H](CC(C)C)C(=O)N1CCC[C@H]1C(=O)O)C(C)C, HATU/NMM, CH3CN, 5.7 mM, 25.0 °C",89%
"CC(C)C[C@@H]1NC(=O)[C@H](C(C)C)OC(=O)C[C@H](O)[C@@H](C(C)C)NC(=O)[C@@H](NC(=O)[C@@H](CC(C)C)N(C)C(=O)[C@@H]2CCCN2C(=O)[C@H](C)O)[C@@H](C)OC(=O)[C@H](Cc2ccccc2)N(C)C(=O)[C@@H]2CCCN2C1=O [Phe^5 tamandarin B, [N-MePhe^5]-Tamandarin B] (H-[Lac]P[dNMeL]T[Hexanoyl(3S-OH,4R-NH2,5-Me)][Hiv]LP[NMeF]; ester 4-C)",TGI,PANC1,3.28E−08 Molar
same,GI50,PANC1,3.81 nM
same,CC50,PANC1,9880 nM
same,GI50,SK-BR3,0.658 nM
same,TGI,SK-BR3,4.49E−09 Molar
same,CC50,SK-BR3,312 nM
same,GI50,SK-MEL-28,2.74 nM
same,TGI,SK-MEL-28,1.88E−08 Molar
same,CC50,SK-MEL-28,205 nM
same,TGI,HELA,4.61E−09 Molar
same,GI50,HELA,1.17 nM
same,CC50,HELA,55.5 nM
same,TGI,LOVO,8.81E−08 Molar
same,GI50,LOVO,26.1 nM
same,CC50,LOVO,5220 nM
same,TGI,A549,3.90E−08 Molar
same,GI50,A549,4.56 nM
same,CC50,A549,935 nM
same,GI50,HELA-APL,44.5 nM
same,TGI,HELA-APL,4.23E−07 Molar
same,CC50,HELA-APL,9880 nM
same,TGI,LN-caP,8.32E−09 Molar
same,GI50,LN-caP,1.52 nM
same,CC50,LN-caP,101 nM
same,GI50,LOVO-DOX,358 nM
same,TGI,LOVO-DOX,1.97E−06 Molar
same,CC50,LOVO-DOX,9880 nM
same,GI50,IGROV-ET,215 nM
same,TGI,IGROV-ET,7.88E−07 Molar
same,CC50,IGROV-ET,6350 nM
same,TGI,HT29,7.89E−08 Molar
same,GI50,HT29,4.77 nM
same,CC50,HT29,9880 nM
same,GI50,K562,23.2 nM
same,TGI,K562,9.88E−07 Molar
same,CC50,K562,9880 nM
same,TGI,DU145,1.02E−08 Molar
same,GI50,DU145,2.37 nM
same,CC50,DU145,268 nM
same,TGI,IGROV,1.28E−08 Molar
same,GI50,IGROV,2.49 nM
same,CC50,IGROV,124 nM
"COc1ccc(C[C@H]2C(=O)O[C@H](C)[C@H](NC(=O)[C@@H](CC(C)C)N(C)C(=O)[C@@H]3CCCN3C(=O)[C@H](C)O)C(=O)N[C@H](C(C)C)[C@@H](O)CC(=O)O[C@@H](C(C)C)C(=O)N[C@@H](CC(C)C)C(=O)N3CCC[C@H]3C(=O)N2C)cc1 [tamandarin B, Tamandarin B, reference compound] (H-[Lac]P[dNMeL]T[Hexanoyl(3S-OH,4R-NH2,5-Me)][Hiv]LP[NMeY](Me); ester 4-C)",TGI,PANC1,5.69E−08 Molar
same,GI50,PANC1,14 nM
same,CC50,PANC1,413 nM
same,GI50,SK-BR3,5.44 nM
same,TGI,SK-BR3,2.49E−08 Molar
same,CC50,SK-BR3,236 nM
same,GI50,SK-MEL-28,3.03 nM
same,TGI,SK-MEL-28,1.19E−08 Molar
same,CC50,SK-MEL-28,119 nM
same,TGI,HELA,1.76E−08 Molar
same,GI50,HELA,3.9 nM
same,CC50,HELA,120 nM
same,TGI,LOVO,1.61E−07 Molar
same,GI50,LOVO,30.5 nM
same,CC50,LOVO,9590 nM
same,TGI,A549,4.01E−08 Molar
same,GI50,A549,7.62 nM
same,CC50,A549,766 nM
same,GI50,HELA-APL,59.7 nM
same,TGI,HELA-APL,1.16E−06 Molar
same,CC50,HELA-APL,9590 nM
same,TGI,LN-caP,2.13E−08 Molar
same,GI50,LN-caP,5.84 nM
same,CC50,LN-caP,142 nM
same,GI50,LOVO-DOX,1250 nM
same,TGI,LOVO-DOX,9.59E−06 Molar
same,CC50,LOVO-DOX,9590 nM
same,GI50,IGROV-ET,173 nM
same,TGI,IGROV-ET,2.04E−06 Molar
same,CC50,IGROV-ET,9590 nM
same,TGI,HT29,4.32E−08 Molar
same,GI50,HT29,6.32 nM
same,CC50,HT29,9590 nM
same,GI50,K562,8.47 nM
same,TGI,K562,2.63E−08 Molar
same,CC50,K562,78.2 nM
same,TGI,DU145,2.41E−08 Molar
same,GI50,DU145,7.08 nM
same,CC50,DU145,79.7 nM
same,TGI,IGROV,2.91E−08 Molar
same,GI50,IGROV,7.31 nM
same,CC50,IGROV,133 nM
